# Measurements reported in patent publication US12344610B2, “APOL1 inhibitors and methods of use” (Maze Therapeutics, Inc., priority 2022, dated 2025).
# Like-named read-outs stand apart in the source and are kept apart here.
# Tests used:
# Assay type in all cases: cell-based
# Conditions in all cases: geometric mean of at least 2 assay runs, † = single assay run
# [1] = test system: Trypanosoma brucei Lister 427 VSG221 with APOL1 G1 recombinant protein; assay: APOL1 G1 trypanosome cell rescue assay (Example B5)
# Summary of the method: (§1)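 Compounds in duplicate 2-fold, 11-point series with 0.4% DMSO final. Next, tag-free mature APOL1 variant protein went in from a 2 μg/mL solution, then trypanosomes to 250 per well. Plates incubated 20 h humidified at 37° C, equilibrated to room temperature, and CellTiter-Glo added for luminescence.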
# [2] = test system: HEK293 cells overexpressing APOL1 G2; assay: APOL1 G2 HEK293 cell rescue assay (reversal of cell death caused by overexpression of APOL1)
# Summary of the method: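 EC50 is the half-maximal effective concentration for reversing cell death driven by APOL1 G2 overexpression in HEK293 cells. Reported as geometric mean of at least 2 runs on separate days, each run averaging duplicate wells per plate; some values from a single run.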
# [3] = test system: Trypanosoma brucei Lister 427 VSG221 with APOL1 G2 recombinant protein; assay: APOL1 G2 trypanosome cell rescue assay (Example B5)
# Summary of the method: as §1
# [4] = Trypanosoma brucei, 20 h, read-out: APOL1 G1 Trypanosome Rescue EC50, Trypanosoma brucei Lister 427 VSG221 with APOL1 G1 recombinant protein, 20 hours, CellTiter-Glo
# [5] = Homo sapiens, HEK293, HEK293 overexpressing APOL1 G2
# [6] = Trypanosoma brucei, 20 h, read-out: APOL1 G2 Trypanosome Rescue EC50, Trypanosoma brucei Lister 427 VSG221 with APOL1 G2 recombinant protein, 20 hours, CellTiter-Glo
smiles,measurement,setting,value
"NC(=O)c1ccc(OCCN2CCC3(CC2)C(=O)Nc2ccc(Cl)cc23)cc1F [Compound 46, 4-(2-{5-chloro-2-oxo-1,2-dihydrospiro[indole-3,4′-piperidin]-1′-yl}ethoxy)-2-fluorobenzamide]",EC50,[1]; [4],215 nM
same,EC50,[2]; [5],72.8 nM
same,EC50,[3]; [6],50.5 nM
"CS(=O)(=O)c1ccc(OCCN2CCC3(CC2)C(=O)Nc2ccc(Cl)cc23)cc1F [Compound 63, 5-chloro-1′-[2-(3-fluoro-4-methanesulfonylphenoxy)ethyl]-1,2-dihydrospiro[indole-3,4′-piperidin]-2-one]",EC50,[1]; [4],164 nM
same,EC50,[2]; [5],51.1 nM
same,EC50,[3]; [6],40.9 nM
"CC1(O)CC(CN2C(=O)CCc3cc(OCCN4CCC5(CC4)C(=O)Nc4ccc(Cl)cc45)cnc32)C1 (single isomer, unassigned) [Compound 322, 5-chloro-1′-{2-[(7-oxo-8-{[(trans) or (cis)-3-hydroxy-3-methylcyclobutyl]methyl}-5,6,7,8-tetrahydro-1,8-naphthyridin-3-yl)oxy]ethyl}-1,2-dihydrospiro[indole-3,4′-piperidin]-2-one]",EC50,"[1]; read-out: APOL1 G1 Trypanosome Rescue EC50, Trypanosoma brucei Lister 427 VSG221 with APOL1 G1 recombinant protein, 20 hours, CellTiter-Glo",34.9 nM
same,EC50,[2]; HEK293 overexpressing APOL1 G2,18.5 nM
same,EC50,"[3]; read-out: APOL1 G2 Trypanosome Rescue EC50, Trypanosoma brucei Lister 427 VSG221 with APOL1 G2 recombinant protein, 20 hours, CellTiter-Glo",11.7 nM
"C[C@]1(O)C[C@@H](n2cc3cc(OCCN4CCC5(CC4)C(=O)Nc4ccc(C#N)cc45)cc(C(F)(F)F)c3n2)C1 [Compound 428, 2-oxo-1′-[2-({2-[(cis)-3-hydroxy-3-methylcyclobutyl]-7-(trifluoromethyl)-2H-indazol-5-yl}oxy)ethyl]-1,2-dihydrospiro[indole-3,4′-piperidine]-5-carbonitrile]",EC50,[1]; [4],71.9 nM
same,EC50,[2]; [5],54.3 nM
same,EC50,[3]; [6],32.3 nM
"CS(=O)(=O)c1ccc(OCCN2CCC3(CC2)C(=O)Nc2ccc(Cl)cc23)cn1 [Compound 64, 5-chloro-1′-{2-[(6-methanesulfonylpyridin-3-yl)oxy]ethyl}-1,2-dihydrospiro[indole-3,4′-piperidin]-2-one]",EC50,[1]; [4],712 nM
same,EC50,[2]; [5],163 nM
same,EC50,[3]; [6],167 nM
"Cn1ncc2cc(OCCN3CCC4(CC3)C(=O)Nc3ccccc34)ccc21 [Compound 70, 1′-{2-[(1-methyl-1H-indazol-5-yl)oxy]ethyl}-1,2-dihydrospiro[indole-3,4′-piperidin]-2-one]",EC50,[1]; [4],> 4000 nM
same,EC50,[2]; [5],1050 nM
same,EC50,[3]; [6],918 nM
"CN(c1ccc(OCCN2CCC3(CC2)C(=O)Nc2ccc(Cl)cc23)cc1)S(C)(=O)=O [Compound 76, N-[4-(2-{5-chloro-2-oxo-1,2-dihydrospiro[indole-3,4′-piperidin]-1′-yl}ethoxy)phenyl]-N-methylmethanesulfonamide]",EC50,[1]; [4],126 nM
same,EC50,[2]; [5],47.7 nM
same,EC50,[3]; [6],35.5 nM
"CC(=O)N1CCCc2cc(OCCN3CCC4(CC3)C(=O)N(C)c3ccccc34)ccc21 [Compound 36, 1′-{2-[(1-acetyl-1,2,3,4-tetrahydroquinolin-6-yl)oxy]ethyl}-1-methyl-1,2-dihydrospiro[indole-3,4′-piperidin]-2-one]",EC50,[1]; [4],> 4000 nM
same,EC50,[2]; [5],919 nM
same,EC50,[3]; [6],1710 nM
"Cc1cc(OCCN2CCC3(CC2)C(=O)Nc2ccc(Cl)cc23)ccc1C(N)=O [Compound 49, 4-(2-{5-chloro-2-oxo-1,2-dihydrospiro[indole-3,4′-piperidin]-1′-yl}ethoxy)-2-methylbenzamide]",EC50,[1]; [4],304 nM
same,EC50,[2]; [5],66.4 nM
same,EC50,[3]; [6],109 nM
"O=C1Nc2ccc(Cl)cc2C12CCN(CCOc1ccc(S(=O)(=O)C3CC3)cc1)CC2 [Compound 43, 5-chloro-1′-{2-[4-(cyclopropanesulfonyl)phenoxy]ethyl}-1,2-dihydrospiro[indole-3,4′-piperidin]-2-one]",EC50,[1]; [4],86.6 nM
same,EC50,[2]; [5],33.1 nM
same,EC50,[3]; [6],19.4 nM
"Cc1ccc2c(c1)C1(CCN(CCOc3ccc(S(C)(=O)=O)cc3)CC1)C(=O)N2 [Compound 66, 1′-[2-(4-methanesulfonylphenoxy)ethyl]-5-methyl-1,2-dihydrospiro[indole-3,4′-piperidin]-2-one]",EC50,[1]; [4],322 nM
same,EC50,[2]; [5],108 nM
same,EC50,[3]; [6],97.6 nM
"[2H]C([2H])([2H])[C@]1(O)C[C@@H](N2C(=O)CCc3cc(OCCN4CCC5(CC4)C(=O)Nc4ccc(Cl)cc45)cnc32)C1 [Compound 461, 5-chloro-1′-[2-({7-oxo-8-[(cis)-3-hydroxy-3-(^2H3)methylcyclobutyl]-5,6,7,8-tetrahydro-1,8-naphthyridin-3-yl}oxy)ethyl]-1,2-dihydrospiro[indole-3,4′-piperidin]-2-one]",EC50,[1]; [4],75.5 nM
same,EC50,[2]; [5],28.1 nM
same,EC50,[3]; [6],28.8 nM
"CN(c1ccc(OCCN2CCC3(CC2)C(=O)Nc2ccc(C#N)cc23)cc1)S(C)(=O)=O [Compound 75, N-[4-(2-{5-cyano-2-oxo-1,2-dihydrospiro[indole-3,4′-piperidin]-1′-yl}ethoxy)phenyl]-N-methylmethanesulfonamide]",EC50,[1]; [4],578 nM
same,EC50,[2]; [5],114 nM
same,EC50,[3]; [6],146 nM
"CP(C)(=O)C1(c2ccc(OCCN3CCC4(CC3)C(=O)Nc3ccc(Cl)cc34)cc2)CC1 [Compound 343, 5-chloro-1′-(2-{4-[1-(dimethylphosphoryl)cyclopropyl]phenoxy}ethyl)-1,2-dihydrospiro[indole-3,4′-piperidin]-2-one]",EC50,[1]; [4],203 nM
same,EC50,[2]; [5],162 nM
same,EC50,[3]; [6],64.2 nM
"C[C@]1(O)C[C@@H](n2ccc3cc(OCCN4CCC5(CC4)C(=O)Nc4ccc(C#N)cc45)cnc32)C1 [Compound 410, 2-oxo-1′-[2-({1-[(cis)-3-hydroxy-3-methylcyclobutyl]-1H-pyrrolo[2,3-b]pyridin-5-yl}oxy)ethyl]-1,2-dihydrospiro[indole-3,4′-piperidine]-5-carbonitrile]",EC50,[1]; [4],269 nM
same,EC50,[2]; [5],64.1 nM
same,EC50,[3]; [6],92.4 nM
"C[C@]1(O)C[C@@H](n2nnc3cc(OCCN4CCC5(CC4)C(=O)Nc4ccc(Cl)cc45)cnc32)C1 [Compound 440, 5-chloro-1′-[2-({3-[(cis)-3-hydroxy-3-methylcyclobutyl]-3H-[1,2,3]triazolo[4,5-b]pyridin-6-yl}oxy)ethyl]-1,2-dihydrospiro[indole-3,4′-piperidin]-2-one]",EC50,[1]; [4],205 nM
same,EC50,[2]; [5],54.4 nM
same,EC50,[3]; [6],70.5 nM
"O=C1Nc2ccc(Cl)cc2C12CCN(CCOc1cnc(C3(CO)CC3)nc1)CC2 [Compound 333, 5-chloro-1′-[2-({2-[1-(hydroxymethyl)cyclopropyl]pyrimidin-5-yl}oxy)ethyl]-1,2-dihydrospiro[indole-3,4′-piperidin]-2-one]",EC50,[1]; [4],205 nM
same,EC50,[2]; [5],43 nM
same,EC50,[3]; [6],74 nM
"Cc1nc(-c2ccc(OCCN3CCC4(CC3)C(=O)N(C)c3ccccc34)cc2)no1 [Compound 35, 1-methyl-1′-{2-[4-(5-methyl-1,2,4-oxadiazol-3-yl)phenoxy]ethyl}-1,2-dihydrospiro[indole-3,4′-piperidin]-2-one]",EC50,[1]; [4],> 4000 nM
same,EC50,[2]; [5],574 nM
same,EC50,[3]; [6],> 4000 nM
"O=C1Nc2ccccc2C12CCN(CCOc1ccc(S(=O)(=O)C(F)F)cc1)CC2 [Compound 44, 1′-[2-(4-difluoromethanesulfonylphenoxy)ethyl]-1,2-dihydrospiro[indole-3,4′-piperidin]-2-one]",EC50,[1]; [4],429 nM
same,EC50,[2]; [5],116 nM
same,EC50,[3]; [6],119 nM
"CCC1(O)CN(c2ncc(OCCN3CCC4(CC3)C(=O)Nc3ccc(Cl)cc34)cn2)C1 [Compound 397, 5-chloro-1′-(2-{[2-(3-ethyl-3-hydroxyazetidin-1-yl)pyrinlidin-5-yl]oxy}ethyl)-1,2-dihydrospiro[indole-3,4′-piperidin]-2-one]",EC50,[1]; [4],269 nM
same,EC50,[2]; [5],45.9 nM
same,EC50,[3]; [6],85.2 nM
"C[C@]1(O)C[C@@H](n2ccc3cc(OCCN4CCC5(CC4)C(=O)Nc4ccc(Cl)cc45)cnc32)C1 [Compound 349, 5-chloro-1′-[2-({1-[(cis)-3-hydroxy-3-methylcyclobutyl]-1H-pyrrolo[2,3-b]pyridin-5-yl}oxy)ethyl]-1,2-dihydrospiro[indole-3,4′-piperidin]-2-one]",EC50,[1]; [4],89.8 nM
same,EC50,[2]; [5],25.4 nM
same,EC50,[3]; [6],33.1 nM
"CN1C(=O)Cc2cc(OCCN3CCC4(CC3)C(=O)Nc3ccc(Cl)cc34)ccc21 [Compound 65, 5-chloro-1′-{2-[(1-methyl-2-oxo-2,3-dihydro-1H-indol-5-yl)oxy]ethyl}-1,2-dihydrospiro[indole-3,4′-piperidin]-2-one]",EC50,[1]; [4],294 nM
same,EC50,[2]; [5],87.5 nM
same,EC50,[3]; [6],96.8 nM
"CN1C(=O)CCc2cc(OCCN3CCC4(CC3)C(=O)Nc3ccc(Cl)cc34)cnc21 [Compound 78, 5-chloro-1′-{2-[(8-methyl-7-oxo-5,6,7,8-tetrahydro-1,8-naphthyridin-3-yl)oxy]ethyl}-1,2-dihydrospiro[indole-3,4′-piperidin]-2-one]",EC50,[1]; [4],97.6 nM
same,EC50,[2]; [5],41 nM
same,EC50,[3]; [6],32.6 nM
